Consider ten molecules from ChEMBL document CHEMBL3351920, “Biased and unbiased strategies to identify biologically active small molecules” (Bioorg Med Chem, 2014).

For orientation: Ki means a measure of affinity in units of concentration, obtained from inhibition or displacement. A lower Ki goes with a stronger hold on the target. Broadly, the IC50 is the concentration at which inhibition is half-maximal. Low values mean inhibition by little substance, high ones a need for much substance. Broadly, the Kd is the constant that tells how readily two partners part at equilibrium. A higher Kd goes with lower affinity.

In one test the target is T1, Bcl-2-like protein 10 (Homo sapiens, UniProt Q9HD36).
T1 sequence (Q9HD36 whole entry): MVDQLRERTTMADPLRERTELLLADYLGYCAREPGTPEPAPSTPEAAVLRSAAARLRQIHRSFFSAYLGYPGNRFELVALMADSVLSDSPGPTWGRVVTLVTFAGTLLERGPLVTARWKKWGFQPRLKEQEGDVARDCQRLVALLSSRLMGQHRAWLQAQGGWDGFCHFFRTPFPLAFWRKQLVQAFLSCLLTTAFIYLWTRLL
The test can be described thus: Binding affinity to Bcl-b (unknown origin).

In a further test the target is T2, Beta-casein (Bos taurus, UniProt P02666).
T2 sequence (P02666 whole entry): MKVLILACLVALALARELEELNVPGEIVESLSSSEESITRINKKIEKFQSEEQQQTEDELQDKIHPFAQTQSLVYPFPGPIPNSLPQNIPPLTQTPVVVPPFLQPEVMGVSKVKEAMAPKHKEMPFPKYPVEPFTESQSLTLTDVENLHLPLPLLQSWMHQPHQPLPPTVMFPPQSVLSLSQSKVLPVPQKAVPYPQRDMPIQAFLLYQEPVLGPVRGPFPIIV
The test can be described thus: Binding affinity to bovine beta-casein A1.

Test [1] concerns the target T3, Glutathione S-transferase Mu 1 (Mus musculus, UniProt P10649).
T3 sequence (P10649 whole entry): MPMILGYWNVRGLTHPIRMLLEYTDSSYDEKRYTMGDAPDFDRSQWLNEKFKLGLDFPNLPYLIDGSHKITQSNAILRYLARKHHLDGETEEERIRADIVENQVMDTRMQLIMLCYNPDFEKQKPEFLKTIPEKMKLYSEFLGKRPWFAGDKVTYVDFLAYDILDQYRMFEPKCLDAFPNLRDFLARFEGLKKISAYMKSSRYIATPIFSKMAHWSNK
The test can be described thus: Inhibition of mouse GSTM1-1.

Test [2] is described as follows: Inhibition of CUG-RNA/MBLN1 (unknown origin) interaction.
The target of test [3] is RAC-alpha serine/threonine-protein kinase (Homo sapiens, UniProt P31749). The test can be described thus: Inhibition of Akt1 (unknown origin).
In the next test the target is Acetylcholinesterase (Homo sapiens, UniProt P22303). Nature of the test: Inhibition of acetylcholine esterase (unknown origin).
Test [4] addresses Cyclin-dependent kinase 1 (Homo sapiens, UniProt P06493). Nature of the test: Inhibition of CDK1 (unknown origin).
Test [5] in a line: Binding affinity to G-quadruplex RNA (unknown origin).
Test [6] can be described thus: Binding affinity to double strand DNA (unknown origin).
Test [7] can be described thus: Binding affinity to H-telo G-quadruplex DNA (unknown origin).

Sequence of Acetylcholinesterase (P22303 whole entry): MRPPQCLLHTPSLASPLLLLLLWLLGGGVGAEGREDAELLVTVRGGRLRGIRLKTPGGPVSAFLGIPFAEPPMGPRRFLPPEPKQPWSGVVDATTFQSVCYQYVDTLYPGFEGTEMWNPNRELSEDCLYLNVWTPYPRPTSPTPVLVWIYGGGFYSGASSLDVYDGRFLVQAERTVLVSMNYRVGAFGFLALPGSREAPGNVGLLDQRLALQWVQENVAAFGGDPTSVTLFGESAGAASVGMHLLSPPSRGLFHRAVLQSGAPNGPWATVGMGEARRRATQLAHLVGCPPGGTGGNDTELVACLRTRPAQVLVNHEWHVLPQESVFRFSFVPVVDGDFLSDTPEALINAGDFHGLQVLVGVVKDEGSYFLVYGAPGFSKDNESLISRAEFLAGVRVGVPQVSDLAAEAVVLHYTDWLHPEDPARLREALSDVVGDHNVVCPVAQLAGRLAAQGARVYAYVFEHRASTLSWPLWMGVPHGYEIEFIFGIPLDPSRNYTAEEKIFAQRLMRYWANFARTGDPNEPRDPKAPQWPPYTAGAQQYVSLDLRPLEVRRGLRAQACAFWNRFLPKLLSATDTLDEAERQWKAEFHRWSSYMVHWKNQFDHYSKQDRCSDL
Sequence of RAC-alpha serine/threonine-protein kinase (P31749 whole entry): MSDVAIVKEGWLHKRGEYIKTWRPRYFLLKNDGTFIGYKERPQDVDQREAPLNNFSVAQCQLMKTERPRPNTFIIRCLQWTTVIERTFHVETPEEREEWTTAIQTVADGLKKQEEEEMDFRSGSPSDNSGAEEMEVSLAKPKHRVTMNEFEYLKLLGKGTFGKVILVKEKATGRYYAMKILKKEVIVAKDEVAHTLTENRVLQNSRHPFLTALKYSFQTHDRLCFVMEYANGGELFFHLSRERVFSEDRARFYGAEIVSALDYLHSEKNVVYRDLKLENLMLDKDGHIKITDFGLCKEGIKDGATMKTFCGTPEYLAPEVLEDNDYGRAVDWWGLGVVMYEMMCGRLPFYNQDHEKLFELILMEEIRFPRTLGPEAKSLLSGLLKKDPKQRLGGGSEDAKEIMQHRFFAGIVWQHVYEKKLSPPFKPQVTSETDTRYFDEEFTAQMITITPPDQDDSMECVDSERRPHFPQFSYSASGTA
Sequence of Cyclin-dependent kinase 1 (P06493 whole entry): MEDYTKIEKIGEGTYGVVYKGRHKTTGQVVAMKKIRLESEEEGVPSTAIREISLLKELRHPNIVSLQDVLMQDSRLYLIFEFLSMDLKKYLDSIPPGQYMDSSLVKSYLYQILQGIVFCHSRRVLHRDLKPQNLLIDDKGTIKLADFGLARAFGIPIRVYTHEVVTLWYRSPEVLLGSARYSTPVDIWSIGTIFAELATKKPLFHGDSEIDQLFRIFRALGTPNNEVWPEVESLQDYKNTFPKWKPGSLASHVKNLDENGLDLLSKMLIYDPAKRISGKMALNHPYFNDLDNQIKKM

With `CN(C)CC[C@H](CSc1ccccc1)Nc1ccc(S(=O)(=O)NC(=O)c2ccc(N3CCN(Cc4ccccc4-c4ccc(Cl)cc4)CC3)cc2)cc1[N+](=O)[O-]` [ABT 737], the inhibitory constant (Ki) on Bcl-2-like protein 10 and on Beta-casein was over 1 nM each time.
For `C[C@H](NC(=O)c1cccc(C(=O)N[C@@H](C)C(=O)N/N=C/c2ccc(SC[C@H](NC(=O)CC[C@H](N)C(=O)O)C(=O)NCC(=O)O)c([N+](=O)[O-])c2)c1)C(=O)N/N=C/c1ccc(SC[C@H](NC(=O)CC[C@H](N)C(=O)O)C(=O)NCC(=O)O)c([N+](=O)[O-])c1`, in test [1], the IC50 turned out to be 50 nM.
In test [2], `CCc1nc2ccccc2cc1C(=O)N1CCC[C@H]1C(=O)N[C@H](CSSC[C@@H](NC(=O)[C@@H]1CCCN1C(=O)c1cc2ccccc2nc1CC)C(=O)N[C@@H](CCCCN)C(=O)NCCCN)C(=O)N[C@@H](CCCCN)C(=O)NCCCN` displayed an inhibitory constant (Ki) of 3600 nM.
`CC[C@H](C)[C@H](NC(=O)[C@H](CCCNC(=N)N)NC(=O)[C@H](CCC(=O)O)NC(=O)[C@H](Cc1cnc[nH]1)NC(=O)[C@H](CCCNC(=N)N)NC(=O)C(CCCCCCCCn1cc(CCCC(=O)NC(CCCCCCCCn2cc(C[C@H](NC(C)=O)C(=O)N[C@@H](Cc3ccccc3)C(=O)N[C@@H](Cc3c[nH]c4ccccc34)C(=O)N[C@@H](Cc3ccccc3)C(=O)N[C@@H](CC(C)C)C(=O)N[C@@H](CCCNC(=N)N)C(=O)NCC(N)=O)nn2)C(=O)N[C@H](C(=O)N[C@@H](Cc2ccccc2)C(=O)N[C@@H](Cc2ccc(O)cc2)C(=O)N[C@@H](CCCNC(=N)N)C(=O)N[C@@H](CC(C)C)C(=O)NCC(=O)N[C@@H](Cc2ccc(O)cc2)C(=O)NCCNC(=O)CCCC[C@H]2SC[C@H]3NC(=O)N[C@H]32)C(C)C)nn1)NC(C)=O)C(N)=O` (stereo partly drawn): in test [3], binding was characterised by a dissociation constant (Kd) of 200 nM.
In turn, `C[N+](C)(C)CCCCCCCCCC[N+](C)(C)C` [DECAMETHONIUM BROMIDE] showed an IC50 at Acetylcholinesterase of 1000 nM.
In test [4], `c1ccc2[nH]c(-c3cc[nH]n3)nc2c1` displayed an IC50 of 28000 nM.
`NCCOc1cc(NC(=O)c2cc(OCc3cn(CCC(=O)O)nn3)cc(C(=O)Nc3cc(OCCN)c4ccccc4n3)n2)nc2ccccc12`: the deltaTm in [5] was 20.7 K.
With `NCCOc1cc(NC(=O)c2cc(OCc3cn([C@H]4O[C@H](CO)[C@@H](O)[C@H](O)[C@H]4O)nn3)cc(C(=O)Nc3cc(OCCN)c4ccccc4n3)n2)nc2ccccc12`, the deltaTm turned out to be 0 K in test [6] and 30 K in test [7].
The corresponding values for `O=C(Nc1cc(OCCN2CCCC2)c2ccccc2n1)c1cc(OCc2cn([C@H]3O[C@H](CO)[C@@H](O)[C@H](O)[C@H]3O)nn2)cc(C(=O)Nc2cc(OCCN3CCCC3)c3ccccc3n2)n1` are 0.1 K and 28 K.
The molecule `O=C(C[n+]1ccccc1)N/N=C/c1ccc(/C=N/NC(=O)C[n+]2ccccc2)cc1` registered a half-maximal inhibitory concentration (IC50) at Acetylcholinesterase of 2.3 nM.
